Molecules are shown by their SMILES.

From the METLIN SMRT retention time set (Domingo-Almenara et al. 2019) come the findings set out here.

This data set in a line: gradient 5% acetonitrile 3 min, to 50% in 2 min, to 85% in 15 min, held 3 min, 100 µL/min. To be noted: column: Zorbax Extend-C18 2.1 x 50 mm; eluents: water / acetonitrile, 0.1% formic acid. The essentials:
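Each retention time is based on an adduct peak selected computationally and verified by manual inspection. Measurements used HPLC–quadrupole time-of-flight mass spectrometry in positive and negative ionization mode on mixtures of ~100 pure standards. Chromatography ran on a Zorbax Extend-C18 column (2.1 × 50 mm, 1.8 μm) at 100 μL/min with water and acetonitrile, each containing 0.1% formic acid, and dead and dwell volumes of 40 μL and 900 μL.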
Compound `CC(C(=O)N1CCN(C)CC1)n1c2ccccc2c2cnn(C)c(=O)c21` (stereo unspecified) had an RP-LC retention time of 612 s.

Take `COc1cccc(C(=O)N2CCC3(CC2)NC(=O)c2cc(C)ccc2N3C)c1`: the RP-LC retention time was found to be 752 s.

`Brc1ccc(OCc2nnc3sc(-c4cccnc4)nn23)cc1` had an RP-LC retention time of 831 s.

`COc1ccc(S(=O)(=O)N2CCC(C(=O)NCc3csc(-c4ccccc4)n3)CC2)cc1` had an RP-LC retention time of 885 s.

Compound `COc1ccc(-c2noc(-c3nnn4c3COC(c3ccc(F)cc3)C4)n2)c(OC)c1` (stereo unspecified) showed an RP-LC retention time of 836 s.

For the compound `CC(C)(C)NC(=O)c1ccc2c(c1)CCCN2S(C)(=O)=O`, the RP-LC retention time turned out to be 746 s.

Consider `Cc1cc(C)c(S(=O)(=O)N2CC(c3nc(-c4ccncc4)no3)C2)cc1C`, for which the RP-LC retention time came out at 974 s.

Consider `CC(=O)N1CCCC1CCc1ncc(C)n1C(C)C` (stereo unspecified), for which the RP-LC retention time came out at 577 s.

`COc1ccc(-c2nc(NCc3ccc(C)o3)c3ccccc3n2)cc1` registered an RP-LC retention time of 784 s.

Regarding `CCc1nc(-c2csc(S(=O)(=O)N3CCCC(C(=O)Nc4ccc(F)cc4F)C3)c2)no1` (stereo unspecified), the RP-LC retention time amounted to 1060 s.

`CCOc1ccc(C(=O)N2C[C@@H]3C[C@H]2C[C@@H]3NC(=O)c2ccccc2)cc1` registered an RP-LC retention time of 757 s.

In turn, `COc1cc(OC)cc(C(=O)Nc2ccc3c(c2)Sc2ncccc2C(=O)N3C)c1` yielded an RP-LC retention time of 858 s.

Take `Cc1ccc(NC(=O)C2CCN(C(=O)c3ncn4c3COC(c3ccccc3)C4)CC2)cc1` (stereo unspecified): the RP-LC retention time amounted to 626 s.

`COc1ccc(OC)c(NC(=O)CN2C(=O)CC(c3ccccc3)=Nc3ccccc32)c1` came in with an RP-LC retention time of 982 s.

The compound `CCOc1ccc(OCC)c(N2C=C(C#N)S(=O)(=O)c3cc(F)ccc32)c1` gave an RP-LC retention time of 1030 s.

Consider `Cc1ccc(-c2ncc(C(=O)NCc3ccccc3C)c(-c3ccncc3)n2)cc1`, for which the RP-LC retention time was determined as 909 s.

As for `Cc1ccc(N2CCN(CC(O)COc3ccccc3)CC2)cc1` (stereo unspecified), the RP-LC retention time is 698 s.

Regarding `O=C(Cc1nnc(-c2ccc3ncccc3c2)o1)N1CCN(c2ccccc2)CC1`, the RP-LC retention time came out at 716 s.

Regarding `Cc1oc(-c2[nH]ncc2C(=O)N2CCOCC2)cc1S(=O)(=O)N1CCC(C)CC1`, the RP-LC retention time worked out at 703 s.

Compound `Cn1cc(-c2nc(C(=O)Nc3cccc(Cl)c3)cs2)c2cccnc21` had an RP-LC retention time of 1110 s.

In turn, `CCNC(=O)N1CCCC(c2cccc(C(=O)NCCN3CCOCC3)c2)C1` (stereo unspecified) showed an RP-LC retention time of 577 s.

On to `O=C(NCCCN1CCCC1=O)c1nc2ccccn2c1-c1ccc(F)cc1`, for which the RP-LC retention time was 656 s.

`CC1Oc2ccc(-c3csc(NC(=O)c4ccc(Br)cc4)n3)cc2NC1=O` (stereo unspecified) registered an RP-LC retention time of 990 s.

Turning to `O=C(CSC1CCc2ccccc2NC1=O)NCc1ccc(Cl)cc1Cl` (stereo unspecified), the RP-LC retention time was 868 s.

`O=C(Cc1ccc(F)cc1)NCC#CCN1CCc2ccccc2C1` showed an RP-LC retention time of 565 s.

`O=C(C1CCCC1)N1CCCC(c2nn[nH]n2)C1` (stereo unspecified) had an RP-LC retention time of 636 s.

The compound `NC(=O)c1ccc(I)c([N+](=O)[O-])c1` came in with an RP-LC retention time of 745 s.

The compound `CCN(C(=O)Cn1c(CNC(=O)c2ccco2)nc2ccccc21)c1ccccc1` came in with an RP-LC retention time of 687 s.

`CC(C)N1CCN(C(=O)c2csc(N3CCN(c4ccc(Cl)cc4)CC3)n2)CC1`: the RP-LC retention time turned out to be 706 s.

In turn, `O=C(NCc1ccc(Br)cc1)C1CCN(c2cncnc2N2CCCC2)CC1` returned an RP-LC retention time of 704 s.

In turn, `Cc1ccc(NC(=O)C2CCCN2S(=O)(=O)c2cc3c(cc2C)NC(=O)C(C)O3)cc1F` (stereo unspecified) gave an RP-LC retention time of 860 s.

`C[C@H]1CN(C(=O)Nc2ccc(F)cc2F)C[C@@H]1c1nc(-c2cccnc2)no1` showed an RP-LC retention time of 770 s.

Take `CC1=C(c2ccc(Cl)cc2)S(=O)(=O)N=C1N1CCCN(C(=O)C2CCOC2)CC1` (stereo unspecified): the RP-LC retention time is 733 s.

On to `CCc1cc(=O)n(CC(=O)Nc2ccc(C)c(C)c2)c(N2CCOCC2)n1`, for which the RP-LC retention time came to 798 s.

Turning to `COc1ccc(NS(=O)(=O)c2cc(-c3nnc(C(=O)N4CCCC4)o3)sc2C)cc1OC`, the RP-LC retention time amounted to 806 s.

The compound `Cc1cccc(-c2nnc(SCc3cc(=O)n4c(C)csc4n3)o2)c1` showed an RP-LC retention time of 873 s.

With `CC(C(=O)NCCCN1CCCCC1)n1ccc2cc(S(=O)(=O)N3CCCCCC3)ccc21` (stereo unspecified), the RP-LC retention time worked out at 707 s.

As for `Cc1c(S(=O)(=O)NCC2CC2)c(C)n(C)c1-c1nnc(C2CCC2)o1`, the RP-LC retention time stood at 899 s.

Compound `O=C(CSc1ccc(N2CCCC(C(=O)NC3CC3)C2)nn1)Nc1cc(F)ccc1Cl` (stereo unspecified) yielded an RP-LC retention time of 660 s.

With `Cc1cc(N2CCCC2)n2nc(CN3CCc4ccccc4C3)nc2n1`, the RP-LC retention time stood at 598 s.

The compound `CCn1cc(C(=O)Nc2cc(C)ccc2C)c2cccnc21` came in with an RP-LC retention time of 854 s.

Compound `CC(=O)N[C@@H](Cc1c[nH]c2ccccc12)C(=O)OCc1cc(C(F)(F)F)cc(C(F)(F)F)c1` came in with an RP-LC retention time of 1100 s.

Compound `Cn1cc(-c2nc(C(=O)NCc3cccc(C(F)(F)F)c3)cs2)c2cccnc21` showed an RP-LC retention time of 983 s.

With `COc1ccc(C)cc1NC(=O)N1CCCC1c1c(C)noc1C` (stereo unspecified), the RP-LC retention time came out at 840 s.

With `Cc1cc(N2CCC(NC(=O)Nc3ccccc3C(F)(F)F)C2=O)ccc1F` (stereo unspecified), the RP-LC retention time was 915 s.

Take `CCCn1c(=O)sc2cc(S(=O)(=O)N3CCC(C(=O)Nc4ccc(F)cc4)CC3)ccc21`: the RP-LC retention time was 979 s.

`O=C(Cn1c(=O)c(S(=O)(=O)c2ccccc2)cc2ccccc21)NC1CCCC1` displayed an RP-LC retention time of 840 s.

In the case of `c1ccc2c(c1)cnc1ccccc12`, the RP-LC retention time turned out to be 710 s.

Compound `CCCn1ccc2sc(C)c(C(=O)N3CCN(C(C)C)CC3)c2c1=O` returned an RP-LC retention time of 587 s.

The compound `CC(CCc1ccccc1)NC(C)C(O)c1ccc(O)cc1` (stereo unspecified) displayed an RP-LC retention time of 712 s.

`CCc1ccc(C(=O)Nc2cc(-c3ccn[nH]3)sc2C)cc1` gave an RP-LC retention time of 1120 s.

For the compound `CN(C)c1nccnc1OC1CCN(C(=O)c2ccnn2C)C1` (stereo unspecified), the RP-LC retention time was 634 s.

With `CCOC(=O)N1CCN(C(=O)c2cn(C)nc2C)CC1`, the RP-LC retention time came out at 572 s.

Compound `CN1C(=O)CCc2cc(C(=O)NC3CC3)ccc21` showed an RP-LC retention time of 626 s.

In turn, `CC(C)Cc1ccc(S(=O)(=O)N2CCC3(CC2)c2nccn2CCN3C)cc1` gave an RP-LC retention time of 777 s.

The compound `c1ccc(N2CCN(c3ncnc4scc(-c5cccs5)c34)CC2)cc1` displayed an RP-LC retention time of 1250 s.

In turn, `O=c1c2nnn(-c3cccc(F)c3)c2ncn1Cc1cccnc1` gave an RP-LC retention time of 587 s.

Take `COc1cc(CNC(=O)C2CCCN(c3cc(=O)n(C)c(=O)n3C)C2)cc(OC)c1OC` (stereo unspecified): the RP-LC retention time came out at 636 s.

`CCOc1nc2ccccc2nc1N1CCCC(C(=O)NC(C)c2ccccc2)C1` (stereo unspecified) displayed an RP-LC retention time of 1120 s.

`COc1ccc(-c2cc(C(=O)N3CCCC3c3cc(C)on3)on2)cc1` (stereo unspecified) had an RP-LC retention time of 865 s.

For `COc1ccccc1OC(C)C(=O)Nc1ccnn1Cc1cccs1` (stereo unspecified), the RP-LC retention time was found to be 842 s.

On to `O=C(Nc1ncc(SCCN2CCCC2)s1)[C@]1(c2ccc(S(=O)(=O)C3CC3)cc2)C[C@H]1C1CCCCC1`, for which the RP-LC retention time was 854 s.

In the case of `O=C(NCc1cccc(Cl)c1)c1c(O)c2cccnc2[nH]c1=O`, the RP-LC retention time is 954 s.

`CC(C)CC(NC(=O)c1ccc2c(c1)OCO2)C(=O)Nc1nc2ccccc2[nH]1` (stereo unspecified): the RP-LC retention time turned out to be 710 s.

The compound `O=C(Cn1c(=O)c2cc(-c3ccco3)nn2c2ncccc21)Nc1ccc(F)cc1F` gave an RP-LC retention time of 840 s.

Consider `CCn1nc(C)c(CCNC(=O)Nc2ccccc2C(F)(F)F)c1C`, for which the RP-LC retention time was found to be 672 s.

With `CCCNC(=O)N1CC(Oc2ccc(-c3nc(C)no3)cc2)C1`, the RP-LC retention time worked out at 745 s.

As to `COc1cccc(NC(=O)Cc2csc3nc(-c4ccccc4)cn23)c1`, the RP-LC retention time worked out at 791 s.

Compound `CCOC(=O)c1cnc2c(-c3ccc(F)cc3)c(C)nn2c1N` had an RP-LC retention time of 1020 s.

Compound `CS(=O)(=O)N1CCCN(C(=O)NC2CCCC2)CC1` gave an RP-LC retention time of 636 s.

In the case of `O=C(CCC1CCCN(S(=O)(=O)c2ccccc2)C1)NCC1CCCCC1` (stereo unspecified), the RP-LC retention time is 956 s.

Turning to `O=C(CN1CCN(C(=O)Cc2cccs2)CC1)c1ccco1`, the RP-LC retention time turned out to be 538 s.

Compound `Cc1c(-c2noc(-c3ccccc3)n2)nnn1-c1ccccc1` yielded an RP-LC retention time of 1060 s.

`O=C(COc1ccc(Cl)cc1Cl)Nc1ccc2c(c1)N(C(=O)c1cccs1)CC2`: the RP-LC retention time worked out at 1060 s.

`O=C([C@@H]1C[C@H](F)CN1S(=O)(=O)c1ccccc1F)N1CCCCC1` had an RP-LC retention time of 743 s.

The compound `CNC(=O)CN(C)C(=O)c1cc2c(s1)N(CC1CC1)CCCC2` yielded an RP-LC retention time of 818 s.

For the compound `O=C(CCC1CCCC1)Nc1nc(-c2ccc3ccccc3c2)cs1`, the RP-LC retention time came out at 1340 s.

As to `Cn1c(=O)n(C2CCN(C(=O)Cc3ccsc3)CC2)c2ncncc21`, the RP-LC retention time stood at 630 s.

In the case of `Cc1cc(=O)n(CC(=O)Nc2ccccc2F)c(N2CCCCC2)n1`, the RP-LC retention time was found to be 649 s.

As for `CCC(C)NC(=O)C1CCC(=O)N(c2ccc(OC)cc2)C1c1ccc(OC)c(OC)c1` (stereo unspecified), the RP-LC retention time came to 638 s.

As for `CCn1c(C2CCCN(C(=O)NCC(C)C)C2)nn(C)c1=O` (stereo unspecified), the RP-LC retention time worked out at 628 s.
